Where two headings read alike, the source gives them in different places.

For data set [1] the following is noted: rats; 20 mg/kg caffeine and/or 0.1 g/kg tryptophan 1 h before ethanol; blood two hours after ethanol.
Experimental: One hour later, ethanol was administered. After further two hours, blood was taken from the aorta abdominalis under anesthesia with pentobarbital (Sigma).
Data set [2] in a line: Ethanol metabolism in human (ND), sample intake before ethanol: blood levels. In kind it is in vivo. As to conditions: for blood ethanol level: human ALDH2*1/2 (ND), 3 mg/kg caffeine and/or 30 mg/kg serine orally 1 h before 0.4 g/kg ethanol, 30-180 minutes, vs control; for blood acetaldehyde level: human ND, 3 mg/kg caffeine and/or 30 mg/kg serine 1 h before 0.4 g/kg ethanol. The method, then: The subjects were asked to have no food and water from wake-up time to participate in the test. A control test was performed by 8 persons (as volunteers). Of the 8 persons participated in the control test, 5 persons were chosen to perform a sample administration test. […] . One hour after the sample intake, 5% ethanol solution (white liquor diluted with water) was divided into 6 portions and orally taken 6 times at the intervals of 4 minutes so as to take 0.4 g ethanol per a body weight (kg). Blood was taken immediately before alcohol drinking, 30, 60, 90, 120, and 180 minutes after alcohol drinking. Immediately upon taking blood, blood was mixed with a solution containing 0.6N perchlorate and 0.9% NaCl, and centrifugally separated at 3000 rpm for 20 minutes to remove protein. The ethanol, acetaldehyde and acetate concentrations of the supernatant were measured by gas chromatography manufactured by Perkin Elmer Corporation or Shimazu Corporation (Eriksson C J P et al., Anal. Biochem. Vol. 125, 259-263 (1982)). […] Furthermore, using the same plasma, blood lactate and pyruvate levels were measured by use of determiner LA (Kyowa Medics, Tokyo, Japan) and determiner PA (Kyowa Medics), respectively. Based on the ratio of lactate/pyruvate, the ratio of NADH/NAD^+ was calculated. On the other hand, at the same time of taking blood, 9-rank subjective evaluation was performed by the subjects with respect to “feeling of drunk” (by scores 0 to 8) and comfortable feeling (uncomfortable (score −4) to comfortable (score 4)).

The conditions of data set [3]: mice; Kakuda T et al. 1996; cited from earlier work.
Data set [4] in a line: Blood ethanol level in rats, caffeine+serine administered before ethanol. In kind it is in vivo, Wistar rats. As to conditions: 20 mg/kg caffeine and/or 0.1 g/kg serine orally 1 h before ethanol 2 g/kg, blood 1, 2, 3 and 5 hours, vs water control. The method, then:
Four groups were prepared in total as follow. A control group of rats (n=6) was prepared by orally administering water. […] . […] Blood was taken from the cervical vein 1, 2, 3 and 5 hours after the administration. Immediately upon taking, the blood was mixed well with a solution containing 0.6N perchlorate and 0.9% NaCl, and centrifugally separated at 3000 rpm for 20 minutes to remove protein. The ethanol concentration of the supernatant was measured with a gas chromatograph manufactured by Shimazu Corporation (Eriksson C J P et al., Anal. Biochem. Vol. 125, 259-263 (1982)).

Data set [5] is described as follows: Blood glucose level in rats after caffeine administration. As to conditions: 100 mg/kg body weight caffeine orally, plasma two hours later, vs water control.
The nature of data set [6]: Recovery from hypoglycemia at the time of fatigue (swimming mice). In kind it is in vivo, Balb/c mice. As to conditions: exhausted mice; 80 mg/kg caffeine and/or 200 mg/kg serine orally; vs water control. The protocol:
A swimming experiment of male Balb/c mice (Japan SLC) was performed under flowing water by use of a flowing-water vessel (developed by Matsumoto in Kyoto University). The mice (4 weeks old) were allowed to swim once in two different days at a flow rate of about 4.5 L/min (about 16 cm/sec) for 15 to 20 minutes to allow the mice to get use to the swimming environment. On the next week, these mice (5 weeks old) were fasted for 3 hours. After that, blood was taken from the tail and blood glucose level was measured by GLUTESTACE (Sanwa Kagaku Kenkyusho Co., Ltd.). Immediately after this, the mice were allowed to swim at a flow rate of about 5.5 L/min (about 19 cm/sec), in an intermittent manner. Intermittent swim was performed repeating a cycle consisting of 10-minute swim and 10-minute rest, twice, and then repeating a cycle consisting of 5-minute swim and 10-minute rest until the mice became too exhausted to swim. After the mice too exhausted to swim were allowed to leave alone for 15 minutes, the blood glucose level was checked. […]. A blood glucose level was measured with time.

In a further data set the test system is serine dehydratase (SDS). As to the kind of experiment: Liver mRNA expression after caffeine administration (RT-PCR), SDS. As to conditions: rats, 100 mg/kg caffeine orally, two hours, corrected on housekeeping gene P0.
Data set [7] can be described thus: Blood ethanol in rats, caffeine + each of 20 amino acids. As to conditions: 0.1 g/kg amino acid together with 20 mg/kg caffeine 1 h before ethanol 2 g/kg, blood two hours after ethanol.
Text: One hour after the administration of each sample, ethanol (2 g/kg body weight) was orally administered. After further two hours, blood was taken from the aorta abdominalis under anesthesia with pentobarbital (Sigma).
The nature of data set [8]: Dissolution of serine in non-sugar coffee. As to conditions: 100, 500, 1000, 1500 and 2000 mg serine in 100 ml coffee.
Data set [9] is described as follows: Blood ethanol in rats, sample administered after ethanol. As to conditions: 10 mg/kg caffeine and/or 100 mg/kg serine orally 1 h after ethanol 2 g/kg, blood five hours after ethanol, vs control.
For data set [10] the following is noted: rat, in vivo; cited from earlier work.

As to `Cn1c(=O)c2c(ncn2C)n(C)c1=O` [caffeine, 3,7-dihydro-1,3,7-trimethyl-1H-purine-2,6-dione, reference compound], the blood ethanol level result in data set [1] is given as “A slight downward tendency was observed in the caffeine administration group, but it is not significant change”; in data set [2], “rarely changed”; in data set [4] it was “significantly decreased 2 hours after ethanol administration; however, a significant effect was not observed in other time point”. Further, the blood acetaldehyde level entry in data set [2] is recorded as “did not significantly change”. Further, the “amount needed to significantly reduce the blood ethanol level” value in data set [3] is recorded as 300 mg/kg body weight. Besides, the blood glucose level result in data set [5] is “increasing a blood glucose level”. Further, in data set [6], the “blood glucose level: recovery from hypoglycemia at the time of fatigue” value is given as “recovered from hypoglycemia”. In addition, the “mRNA expression level of SDS in liver” value with serine dehydratase (SDS) is “metabolism of serine and tryptophan was enhanced”.

With `N[C@@H](CO)C(=O)O` [serine], the blood ethanol level result in data set [2] was “rarely changed”; in [4] it was “slightly decreased compared to the control group; however, this change observed in the all measurement time points had not a significance”. The blood acetaldehyde level entry in data set [2] is given as “did not significantly change”. Moreover, the “blood glucose level: recovery from hypoglycemia at the time of fatigue” value in data set [6] is reported as “recovered from hypoglycemia”. Besides, the “relative blood ethanol level compared to the caffeine-only group (regarded as 1)” value in [7] was “blood ethanol reduction effect was observed”. The “dissolution in non-sugar coffee” value in data set [8] is “easily dissolved in non-sugar coffee without any appearance problem such as precipitation and turbidity”. For the same compound, the “relative blood ethanol concentration” value in data set [9] was “A slight downward tendency was observed in the serine single administration group compared to the control group, but it was not significant change”. Also, the “acute half lethal dose” value in data set [10] was 14 g/kg body weight.

As for `N[C@@H](Cc1c[nH]c2ccccc12)C(=O)O` [tryptophan], in data set [1], the blood ethanol level result is “No change was observed”. Also, the “relative blood ethanol level compared to the caffeine-only group (regarded as 1)” value in [7] is on record as “blood ethanol reduction effect was observed”.
